Experimental data as given in publication PMC11393638 (Regulatory toxicology and pharmacology : RTP, 2023).
Marks after values point to notes of the source that are not given here.

Tests used:
[1] = test system: CYP2C19-expressing TK6 cells; assay: TK and HPRT gene mutation assays in CYP2C19-expressing TK6 cells; type: cell-based, human; settings: 0.1 μg/mL (positive control), 4-h treatment
hamster V79 cells = settings: without exogenous activation; ref Brambilla et al., 1989; cited from earlier work
TK6 cells [2] = assay: TK and HPRT gene mutation assays in TK6 cells with hamster liver S9; settings: 100 μM; 4-h treatment; TK6 cells with 1% hamster liver S9
TK6 cells [3] = settings: up to 10 mM; 1% rat liver S9; ref Liviac et al., 2011; cited from earlier work
TK6 cells [4] = assay: In vitro micronucleus assay in TK6 cells; settings: 4-h (2% S9) and 24-h (0.4% S9) treatments
TK6 cells [5] = settings: 2% Aroclor-1254-induced rat liver S9; ref Bernacki et al., 2016; cited from earlier work

O=[N+]([O-])c1cc[n+]([O-])c2ccccc12 [4NQO, reference compound]
HPRT gene MF [1]: 34.1^c × 10^−6 | Relative survival (%) [1]: 59.9% | TK gene MF [1]: 69.2^c × 10^−6

CN(N=O)C1=Nc2ccc(Cl)cc2C(c2ccccc2)=[N+]([O-])C1 [N-nitroso chlordiazepoxide]
HPRT mutations (hamster V79 cells): induce concentration-dependent HPRT mutations

CCN(CC)N=O [NDEA, N-nitrosodiethylamine, reference compound]
HPRT gene MF (TK6 cells [2]): 23.1^c × 10^−6 | Relative survival (%) (TK6 cells [2]): 66.9% | TK gene MF (TK6 cells [2]): 44.2^c × 10^−6 | MN formation (TK6 cells [3]): did not induce MN formation | %MN frequency with hamster liver S9 (TK6 cells [4]): induced MN | Genotoxic or cytotoxic responses (TK6 cells [5]): failed to biotransform NDEA to produce any genotoxic or cytotoxic responses
